Type in all cases: physicochemical, human
The nature of data set [1]: GC/MS of blood plasma sample: time from blood collection to cooling of blood (Table B). Set-up: key to Rate of increase or decrease / Rate of increase or decrease (first value, increase): detection intensity relative to 1 at cooling time ≤1 min. As to conditions: for Increase or decrease: detection intensity, blood collection to cooling 5 minutes or more vs 1 minute or less; for Rate of increase or decrease: detection intensity relative to 1 at 1 minute or less, blood collection to cooling 5 minutes. The method in brief: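 Blood drawn at room temperature into EDTA tubes, mixed, then cooled at 4° C. within 1 minute or less versus 5 minutes or more before centrifugation (4° C., 3000 rpm, 15 minutes). Plasma was frozen, methoxymated and trimethylsilylated, and analysed by EI GC/MS in MRM mode. Values are detection intensity relative to the ≤1 minute condition.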

The nature of data set [2]: LC/MS of serum sample: number of times of freezing and thawing (Table M). Particulars: for Number of times when compound is affected / Increase or decrease: serum sample, LC/MS; for Number of times when compound is affected: detection intensity changed by 30% or more vs 2 times of freezing and thawing; for Increase or decrease: detection intensity vs 2 times of freezing and thawing. Set-up: key to Rate of increase or decrease: detection intensity relative to 1 at 2 freeze-thaw cycles. The procedure, abridged:
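Values are detection intensities relative to serum thawed twice, versus 4, 6 or 10 freeze-thaw cycles. Serum came from blood spun at room temperature, 3500 rpm for 5 minutes. Analysis: electrospray LC/MS in MRM mode, Discovery HS F5-3 column, 40° C, 0.1% formic acid in water and acetonitrile.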

The nature of data set [3]: GC/MS of serum sample: time from centrifugation to isolation (Table H). Set-up: key to Rate of increase or decrease / Rate of increase or decrease (first value, increase): detection intensity relative to 1 at 30 min centrifugation-to-isolation. Particulars: for Rate of increase or decrease: detection intensity relative to 1 at 30 minutes; for Increase or decrease: detection intensity. The method in brief: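 Values are GC/MS (EI, MRM) detection intensities of methoxymated/trimethylsilylated serum, normalised to 1 for the 30-min sample. Serum was isolated 30 min, 1 h or 6 h after room-temperature centrifugation (3500 rpm, 5 min) of blood.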

Data set [4] is described as follows: LC/MS of blood plasma sample: time from blood collection to centrifugation (Table D). Particulars: for Rate of increase or decrease: detection intensity relative to 1 at 15 minutes; for Rate of increase or decrease / Increase or decrease: blood collection to centrifugation; for Increase or decrease: detection intensity. The method in brief: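 Detection intensities are expressed relative to samples centrifuged 15 min after collection (=1), measured by electrospray LC/MS in MRM mode (Discovery HS F5-3, 40 °C, formic acid water/acetonitrile gradient at 0.25 mL/min). EDTA blood from a healthy donor was held at 4 °C, centrifuged at 4 °C, 3000 rpm, 15 min, and plasma frozen.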

Data set [5] can be described thus: LC/MS of serum sample: time from blood collection to centrifugation (Table J). As to conditions: for Increase or decrease / Time when compound is affected: serum sample, LC/MS; for Increase or decrease: detection intensity vs 15 minutes from blood collection to centrifugation; for Time when compound is affected: time from blood collection to centrifugation, detection intensity changed by 30% or more vs 15 minutes. The method in brief:
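Detection intensities are expressed relative to 1 for samples centrifuged 15 min after blood collection; centrifugation was at room temperature, 3500 rpm, 5 min. Frozen serum was run by electrospray LC-MS in MRM mode, with 0.1% formic acid water/acetonitrile at 0.25 mL/min on a 40 °C F5 column.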

A short description of data set [6]: LC/MS of blood plasma sample: time from blood collection to cooling of blood (Table E). Set-up: key to Rate of increase or decrease / Rate of increase or decrease (first value, increase): detection intensity relative to ≤1 min to cooling = 1. As to conditions: for Increase or decrease: detection intensity, blood collection to cooling 5 minutes or more vs 1 minute or less; for Rate of increase or decrease: detection intensity relative to 1 at 1 minute or less, blood collection to cooling 5 minutes.

Data set [7] is described as follows: GC/MS of serum sample: time from blood collection to centrifugation (Table G). Particulars: for Rate of increase or decrease: detection intensity relative to 1 at 15 minutes; for Rate of increase or decrease / Increase or decrease: blood collection to centrifugation; for Increase or decrease: detection intensity, after 4 hours vs 15 minutes. The method in brief: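 Values express detection intensity as a ratio to the sample centrifuged 15 minutes after blood collection (taken as 1). Serum was derivatized by methoxymation and trimethylsilylation, then analysed by electron-ionization GC/MS using multiple reaction monitoring on a BPX5 column ramped from 60 to 330° C.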

[8] abbreviates: different from individual to individual, individuals with decrease, relative to 1 at 1 minute or less, collection to cooling 5 minutes.
Setting [9] is: different from individual to individual, individuals with increase, relative to 1 at 1 minute or less, collection to cooling 5 minutes.
[10] abbreviates: 4 times of freezing and thawing, relative to 1 at 2 times, different from individual to individual, first value (increase).
Where [11] appears, read: 4 times of freezing and thawing, relative to 1 at 2 times, different from individual to individual, second value (decrease).
[12] abbreviates: different from individual to individual, individuals with decrease, relative to 1 at 15 minutes, collection to centrifugation, after 4 hours.
Where [13] appears, read: different from individual to individual, individuals with increase, relative to 1 at 15 minutes, collection to centrifugation, after 4 hours.
Setting [14] is: after 4 hours from blood collection to centrifugation, detection intensity relative to 1 at 15 minutes.

As for `NC(=O)NC1NC(=O)NC1=O` (centres unmarked) [Allantoin], the Increase or decrease entry in data set [1] is reported as “Different from individual”; in data set [2], “Increase”; in data set [3] (after 6 hours vs 30 minutes), “Increase”; in data set [4] (after 4 hours vs 15 minutes), “Decrease”; in data set [5], “Different from individual”; in data set [6], “Different from individual”. Further, the Increase or decrease result in data set [7] was “Increase”. The “Rate of increase or decrease (second value, decrease)” value in data set [1] (setting [8]) was 0.57; in data set [6] (setting [8]), 0.40. Moreover, the “Rate of increase or decrease (first value, increase)” value in data set [1] (setting [9]) is recorded as 1.30; in data set [6] (setting [9]) it was 1.57. For the same compound, the “Rate of increase or decrease” value was 3.27 in data set [2] (4 times of freezing and thawing, detection intensity relative to 1 at 2 times); 3.00 in data set [3] (after 6 hours); 0.52 in data set [4] (after 4 hours); 1.78 in data set [5] (after 4 hours, relative to 1 at 15 minutes, different from individual to individual, first value (increase)); 0.40 in data set [5] (after 4 hours, relative to 1 at 15 minutes, different from individual to individual, second value (decrease)); 1.67 in data set [7] (after 4 hours). Besides, in data set [2], the “Number of times when compound is affected” value (shortened to “Number of times”) is reported as 4 times. In data set [5], the “Time when compound is affected” value was “After 4 hours”.

For `O=c1[nH]cnc2nc[nH]c12` [Hypoxanthine], the “Rate of increase or decrease” value is on record as 1.35 in data set [2] (setting [10]); 0.61 in data set [2] (setting [11]); 1.36 in data set [3] (after 1 hour); 2.24 in data set [5] (setting [14]); 7.92 in data set [6]; 2.11 in data set [7] (after 4 hours). In data set [2], the “Number of times” value is on record as 4 times. Also, the Increase or decrease result is recorded as “Different from individual” in data set [2]; “Increase” in data set [3] (after 1 hour vs 30 minutes); “Different from individual” in data set [4] (after 4 hours vs 15 minutes); “Increase” in data set [5]; “Increase” in data set [6]; “Increase” in data set [7]. In addition, the “Rate of increase or decrease (second value, decrease)” value in data set [4] (setting [12]) is reported as 0.70. For the same compound, in data set [4] (setting [13]), the “Rate of increase or decrease (first value, increase)” value is reported as 3.84. The “Time when compound is affected” value in data set [5] is on record as “After 4 hours”.

Take `CC(C)(CO)[C@@H](O)C(=O)NCCC(=O)O` [Pantothenic acid]: the “Rate of increase or decrease” value in data set [1] worked out at 3.56; in data set [2] (10 times of freezing and thawing, detection intensity relative to 1 at 2 times), 0.55; in data set [3] (after 1 hour), 0.66; in data set [5] (after 12 hours from blood collection to centrifugation, detection intensity relative to 1 at 15 minutes), 1.43. In addition, the Increase or decrease result in data set [1] is given as “Increase”; in data set [2], “Decrease”; in data set [3] (after 1 hour vs 30 minutes), “Decrease”; in data set [4] (after 6 hours vs 15 minutes), “Increase”; in data set [5], “Increase”; in data set [7] it was “Different from individual”. Besides, the “Number of times” value in data set [2] came to 10 times. Besides, in data set [5], the “Time when compound is affected” value was “After 12 hours”. Besides, the “Rate of increase or decrease (second value, decrease)” value in data set [7] (setting [12]) is 0.51. In data set [7] (setting [13]), the “Rate of increase or decrease (first value, increase)” value was 1.78.

On to `O=c1[nH]c(=O)c2[nH]cnc2[nH]1` [Xanthine], for which the “Rate of increase or decrease” value in data set [1] is given as 0.45; in data set [2] (setting [10]) it was 1.37; in data set [2] (setting [11]), 0.70; in data set [4] (after 6 hours), 1.39; in data set [5] (setting [14]), 1.92; in data set [6], 1.47. The Increase or decrease entry is reported as “Decrease” in data set [1]; “Different from individual” in data set [2]; “Increase” in data set [4] (after 6 hours vs 15 minutes); “Increase” in data set [5]; “Increase” in data set [6]. In data set [2], the “Number of times” value was 4 times. Besides, the “Time when compound is affected” value in data set [5] is given as “After 4 hours”.
